Assay results reported in ChEMBL document CHEMBL1126232, “3-oxagranatane (3-oxa-9-azabicyclo[3.3.1]nonane) derivatives as highly potent serotonin 5-Ht3 receptor antagonists” (Bioorg Med Chem Lett, 1992).

Tests used:
Rattus norvegicus = species: Rattus norvegicus; experiment: animal or person; type: functional; settings: iv, read-out: ID50 (the source's name)
Description: Antagonistic activity towards serotonin 5-HT3 receptor was evaluated by inhibition of 5-HT evoked reflexes in rat on intravenous administration

[1] = pKa value was determined; type: physicochemical

Work on `COc1ccccc1NC(=O)NC1CC2COCC(C1)N2C` (stereo not drawn) yielded an ED50 (Rattus norvegicus) of 1.1 µg/kg.
Compound `CN1C2COCC1CC(NC(=O)c1nn(C)c3ccccc13)C2` (stereo not drawn) has an ED50 (Rattus norvegicus) of 0.16 µg/kg.
`CN1C2CCC1CC(NC(=O)N1CC(C)(C)c3ccccc31)C2` (stereo not drawn) gave an ED50 (Rattus norvegicus) of 0.7 µg/kg and a pKa [1] of 9.4.
For `COc1ccccc1NC(=O)NC1CC2CCCC(C1)N2C` (stereo not drawn), the ED50 (Rattus norvegicus) was 7.5 µg/kg.
For `CN1C2CCC1CC(NC(=O)N1CCc3ccccc31)C2` (stereo not drawn), the ED50 (Rattus norvegicus) was 1.4 µg/kg.
`COc1cc(N)c(Cl)cc1C(=O)NC1CC2CCC(C1)N2C` (stereo not drawn) gave an ED50 (Rattus norvegicus) of 0.8 µg/kg.
Compound `COc1cc(N)c(Cl)cc1C(=O)NC1CC2COCC(C1)N2C` (stereo not drawn) has an ED50 (Rattus norvegicus) of 0.09 µg/kg.
`CN1C2COCC1CC(NC(=O)N1CC(C)(C)c3ccccc31)C2` (stereo not drawn) showed an ED50 (Rattus norvegicus) of 0.13 µg/kg and a pKa [1] of 7.1.
For `COc1ccccc1NC(=O)NC1CC2CCC(C1)N2C` (stereo not drawn), the ED50 (Rattus norvegicus) was 2.5 µg/kg.
In the case of `COc1cc(N)c(Cl)cc1C(=O)NC1CC2CCCC(C1)N2C` (stereo not drawn), the ED50 (Rattus norvegicus) is reported as 0.4 µg/kg.
In the case of `CN1C2CCCC1CC(NC(=O)c1nn(C)c3ccccc13)C2` (stereo not drawn) [GRANISETRON], the pKa [1] is reported as 9.1.
